# Literature values as cited in patent US9109008B2, “Tubulysin compounds, methods of making and use” (priority 2013, dated 2015).
# Tested on: cancer cell lines
# Settings: Kaur et al. 2006
compound,measurement,value
CC[C@H](C)[C@H](NC(=O)[C@H]1CCCCN1C)C(=O)N(COC(=O)CC(C)C)[C@H](C[C@@H](OC(C)=O)c1nc(C(=O)N[C@@H](Cc2ccc(O)cc2)C[C@H](C)C(=O)O)cs1)C(C)C [tubulysin A],antiproliferative potency compared with other antimitotic agents,more potent than other antimitotic agents such as paclitaxel and vinblastine
